Columns and labels:
Experiment in all cases: NCI single-dose screen (SRB)
Type in all cases: cell-based
[1] = tested on: MDA-MB-231/ATCC; settings: Homo sapiens; Breast Cancer MDA-MB-231/ATCC; 10^−5 M; read-out: Growth inhibition percentage
Description: (§1) The methodology of the NCI anticancer screening was described in detail elsewhere (http://www.dtp.nci.nih.gov). […] Tested compounds were added to the culture at a single concentration (10^−5 M) and the cultures were incubated for 48 h. End-point determinations were made with a protein binding dye, SRB. Results for each tested compound were reported as the percentage growth of the treated cells when compared to the untreated control cells. The percentage growth was evaluated spectrophotometrically versus controls not treated with test agents. All experiments were repeated three times (Table 1).
(§2) Briefly, the protocol was performed on 60 human tumor cell lines derived from different nine neoplastic diseases. […] If the results obtained met selection criteria, then the compound was tested again on all 60 cell lines in 5× 10-fold dilutions with the top dose being 10^−4 M or 150 μg/mL. Detailed methods are described in the Supplementary Materials related to this article.
(§3) on their site (http://www.dtp.nci.nih.gov). But briefly, the protocol performed at sixty human
(§4) National Cancer Institute, Bethesda, USA. If the results obtained meet selection criteria, then the
(§5) 10-4 molar or 150 μg/mL. […]

[2] = tested on: KM12; settings: Homo sapiens; Colon Cancer KM12; 10^−5 M; read-out: Growth inhibition percentage
Description: as §1, §2, §3, §4, §5

[3] = tested on: MCF7; settings: Homo sapiens; Breast Cancer MCF7; 10^−5 M; read-out: Growth inhibition percentage
Description: as §1, §2, §3, §4, §5

[4] = tested on: SK-MEL-28; settings: Homo sapiens; Melanoma SK-MEL-28; 10^−5 M; read-out: Growth inhibition percentage
Description: as §1, §2, §3, §4, §5

[5] = tested on: 786-0; settings: Homo sapiens; Renal Cancer 786-0; 10^−5 M; read-out: Growth inhibition percentage
Description: as §1, §2, §3, §4, §5

[6] = tested on: SNB-75; settings: Homo sapiens; CNS Cancer SNB-75; 10^−5 M; read-out: Growth inhibition percentage
Description: as §1, §2, §3, §4, §5

[7] = tested on: TK-10; settings: Homo sapiens; Renal Cancer TK-10; 10^−5 M; read-out: Growth inhibition percentage
Description: as §1, §2, §3, §4, §5

[8] = tested on: PC-3; settings: Homo sapiens; Prostate Cancer PC-3; 10^−5 M; read-out: Growth inhibition percentage
Description: as §1, §2, §3, §4, §5

[9] = tested on: NCI-H522; settings: Homo sapiens; Non-Small-Cell Lung Cancer NCI-H522; 10^−5 M; read-out: Growth inhibition percentage
Description: as §1, §2, §3, §4, §5

[10] = tested on: SW-620; settings: Homo sapiens; Colon Cancer SW-620; 10^−5 M; read-out: Growth inhibition percentage
Description: as §1, §2, §3, §4, §5

[11] = tested on: NCI-H460; settings: Homo sapiens; Non-Small-Cell Lung Cancer NCI-H460; 10^−5 M; read-out: Growth inhibition percentage
Description: as §1, §2, §3, §4, §5

[12] = tested on: SK-MEL-2; settings: Homo sapiens; Melanoma SK-MEL-2; 10^−5 M; read-out: Growth inhibition percentage
Description: as §1, §2, §3, §4, §5

[13] = tested on: T-47D; settings: Homo sapiens, T47D; Breast Cancer T-47D; 10^−5 M; read-out: Growth inhibition percentage
Description: as §1, §2, §3, §4, §5

[14] = tested on: NCI-H23; settings: Homo sapiens; Non-Small-Cell Lung Cancer NCI-H23; 10^−5 M; read-out: Growth inhibition percentage
Description: as §1, §2, §3, §4, §5

[15] = tested on: OVCAR-3; settings: Homo sapiens; Ovarian Cancer OVCAR-3; 10^−5 M; read-out: Growth inhibition percentage
Description: as §1, §2, §3, §4, §5

[16] = tested on: BT-549; settings: Homo sapiens; Breast Cancer BT-549; 10^−5 M; read-out: Growth inhibition percentage
Description: as §1, §2, §3, §4, §5

[17] = tested on: A498; settings: Homo sapiens; Renal Cancer A498; 10^−5 M; read-out: Growth inhibition percentage
Description: as §1, §2, §3, §4, §5

[18] = tested on: MDA-MB-468; settings: Homo sapiens; Breast Cancer MDA-MB-468; 10^−5 M; read-out: Growth inhibition percentage
Description: as §1, §2, §3, §4, §5

[19] = tested on: HT29; settings: Homo sapiens, HT-29; Colon Cancer HT29; 10^−5 M; read-out: Growth inhibition percentage
Description: as §1, §2, §3, §4, §5

[20] = tested on: NCI/ADR-RES; settings: Homo sapiens; Ovarian Cancer NCI/ADR-RES; 10^−5 M; read-out: Growth inhibition percentage
Description: as §1, §2, §3, §4, §5

[21] = tested on: HCT-116; settings: Homo sapiens; Colon Cancer HCT-116; 10^−5 M; read-out: Growth inhibition percentage
Description: as §1, §2, §3, §4, §5

[22] = tested on: CAKI-1; settings: Homo sapiens; Renal Cancer CAKI-1; 10^−5 M; read-out: Growth inhibition percentage
Description: as §1, §2, §3, §4, §5

[23] = tested on: HS 578T; settings: Homo sapiens; Breast Cancer HS 578T; 10^−5 M; read-out: Growth inhibition percentage
Description: as §1, §2, §3, §4, §5

[24] = tested on: COLO 205; settings: Homo sapiens; Colon Cancer COLO 205; 10^−5 M; read-out: Growth inhibition percentage
Description: as §1, §2, §3, §4, §5

[25] = tested on: LOX IMVI; settings: Homo sapiens; Melanoma LOX IMVI; 10^−5 M; read-out: Growth inhibition percentage
Description: as §1, §2, §3, §4, §5

[26] = tested on: SK-OV-3; settings: Homo sapiens; Ovarian Cancer SK-OV-3; 10^−5 M; read-out: Growth inhibition percentage
Description: as §1, §2, §3, §4, §5

[27] = tested on: CCRF-CEM; settings: Homo sapiens; Leukemia CCRF-CEM; 10^−5 M; read-out: Growth inhibition percentage
Description: as §1, §2, §3, §4, §5

[28] = tested on: SF-268; settings: Homo sapiens; CNS Cancer SF-268; 10^−5 M; read-out: Growth inhibition percentage
Description: as §1, §2, §3, §4, §5

[29] = tested on: ACHN; settings: Homo sapiens; Renal Cancer ACHN; 10^−5 M; read-out: Growth inhibition percentage
Description: as §1, §2, §3, §4, §5

| SMILES | inhibition at 10 µM [1] [%] | inhibition at 10 µM [2] [%] | inhibition at 10 µM [3] [%] | inhibition at 10 µM [4] [%] | inhibition at 10 µM [5] [%] | inhibition at 10 µM [6] [%] | inhibition at 10 µM [7] [%] | inhibition at 10 µM [8] [%] | inhibition at 10 µM [9] [%] | inhibition at 10 µM [10] [%] | inhibition at 10 µM [11] [%] | inhibition at 10 µM [12] [%] | inhibition at 10 µM [13] [%] | inhibition at 10 µM [14] [%] | inhibition at 10 µM [15] [%] | inhibition at 10 µM [16] [%] | inhibition at 10 µM [17] [%] | inhibition at 10 µM [18] [%] | inhibition at 10 µM [19] [%] | inhibition at 10 µM [20] [%] | further results |
| --- | --- | --- | --- | --- | --- | --- | --- | --- | --- | --- | --- | --- | --- | --- | --- | --- | --- | --- | --- | --- | --- |
| COC(=O)/C=C1/S/C(=N/NC(=O)c2cc3ccc2CCc2ccc(cc2)CC3)N(C2CC2)C1=O [Compound 3f] | 3.5 | 1.32 | 36.4 | 10.3 | 14.6 | 24.7 | 0 | 18.9 | 30 | 12.9 | 1.98 | 13.5 | 23 | 9.32 | 15.9 | 26.8 | 3.39 | 29.7 | 24 | 7.72 | inhibition at 10 µM [21]: 24.6%; inhibition at 10 µM [22]: 24.5%; inhibition at 10 µM [23]: 5.01%; inhibition at 10 µM [24]: 4.48%; inhibition at 10 µM [25]: 9.41%; inhibition at 10 µM [26]: 0%; inhibition at 10 µM [27]: 41.4%; inhibition at 10 µM [28]: 2.56%; inhibition at 10 µM [29]: 17.8% |
| COC(=O)C=C1SC(=Nc2cccnc2)N(NC(=O)c2cc3ccc2CCc2ccc(cc2)CC3)C1=O [Compound 3c, Methyl (E)-2-((E)-3-[2.2]paracyclophanyl)amido-4-oxo-2-(pyridin-3-ylimino)-thiazolidin-5-ylidene)acetate] | 10.6 | 7.32 | 26.8 | 0.86 | 8.52 | 0.25 | 0 | 18.2 | 17.7 | 10.8 | 0.75 | 0 | 31.1 | 9.18 | 4.51 | 18.4 | 3.59 | 18 | 7.71 | 4.7 | inhibition at 10 µM [21]: 6.35%; inhibition at 10 µM [22]: 4.78%; inhibition at 10 µM [23]: 0%; inhibition at 10 µM [24]: 0%; inhibition at 10 µM [25]: 9.78%; inhibition at 10 µM [26]: 0%; inhibition at 10 µM [27]: 31.3%; inhibition at 10 µM [28]: 3.08%; inhibition at 10 µM [29]: 11% |
| C=CCN1C(=O)C(=CC(=O)OC)SC1=NNC(=O)c1cc2ccc1CCc1ccc(cc1)CC2 [Compound 3d] | 2.27 | 18.4 | 48.5 | 0 | 8.77 | 21.9 | 0 | 51.6 | 39.2 | 55.5 | 0 | 2.7 | 25 | 11.8 | 13.6 | 38.3 | 12.1 | 23.7 | 54 | 10.5 | inhibition at 10 µM [21]: 46%; inhibition at 10 µM [22]: 5.23%; inhibition at 10 µM [23]: 6.41%; inhibition at 10 µM [24]: 0%; inhibition at 10 µM [25]: 21.2%; inhibition at 10 µM [26]: 0%; inhibition at 10 µM [27]: 77.1%; inhibition at 10 µM [28]: 0%; inhibition at 10 µM [29]: 12.2% |
| CCN1C(=O)C(=CC(=O)OC)SC1=NNC(=O)c1cc2ccc1CCc1ccc(cc1)CC2 [Compound 3e] | 3.95 | 15 | 56.3 | 0 | 9.45 | 21.2 | 6.5 | 43.3 | 40.3 | 91.2 | 0 | 5.78 | 5.77 | 0.4 | 7.09 | 7.73 | 6.63 | 12.7 | 54.8 | 13.5 | inhibition at 10 µM [21]: 50.5%; inhibition at 10 µM [22]: 0%; inhibition at 10 µM [23]: 1.03%; inhibition at 10 µM [24]: 0%; inhibition at 10 µM [25]: 26.5%; inhibition at 10 µM [26]: 0%; inhibition at 10 µM [27]: 66.1%; inhibition at 10 µM [28]: 2.18%; inhibition at 10 µM [29]: 10.4% |

— PMC7411887, “New Paracyclophanylthiazoles with Anti-Leukemia Activity: Design, Synthesis, Molecular Docking, and Mechanistic Studies” (Molecules, 2020)
